According to article PMC9927415, “Tyrosine Kinase Inhibitors Display Potent Activity against Cryptosporidium parvum” (Microbiology Spectrum, 2022):

What was measured:
[1] = target: T1, panel of 203 kinases (Homo sapiens, UniProt O94768); assay: KINOMEscan competitive binding, whole panel; conditions: 10 µM, n=1; kinase DRAK2; read-out: Percent inhibition DRAK2
T1 construct: purchased DiscoverX (KINOMEscan)
T1 sequence (O94768 1-372): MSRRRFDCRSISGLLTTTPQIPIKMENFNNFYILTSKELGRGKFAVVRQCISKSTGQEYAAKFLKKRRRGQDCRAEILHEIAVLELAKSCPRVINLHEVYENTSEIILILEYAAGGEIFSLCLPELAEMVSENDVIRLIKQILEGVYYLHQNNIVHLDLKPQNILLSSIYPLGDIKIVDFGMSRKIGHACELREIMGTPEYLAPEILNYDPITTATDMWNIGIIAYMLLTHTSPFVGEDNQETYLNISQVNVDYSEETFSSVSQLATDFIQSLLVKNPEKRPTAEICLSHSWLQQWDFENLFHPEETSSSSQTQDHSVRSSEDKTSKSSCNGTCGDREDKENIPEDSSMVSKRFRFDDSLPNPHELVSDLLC
Description: (§1) The kinases were expressed as fusions to T7 bacteriophage. This is a sensitive, competitive binding assay where test compounds were used to displace immobilized ATP-site binding probe ligands from kinases of interest. The amount of kinase that remained bound to the immobilized probe ligands on the solid support was quantified. Percentage inhibition data were was plotted on kinome trees using the web-based tool KinMap (http://www.kinhub.org/kinmap) ([60]).

[2] = target: T2, panel of 203 kinases (Homo sapiens, UniProt P07332); assay: KINOMEscan competitive binding, whole panel; conditions: 10 µM, n=1; kinase FES; read-out: Percent inhibition FES
T2 construct: purchased DiscoverX (KINOMEscan)
Description: as §1

[3] = target: T3, panel of 203 kinases (Homo sapiens, UniProt P07333); assay: KINOMEscan competitive binding, whole panel; conditions: 10 µM, n=1; kinase CSF1R; read-out: Percent inhibition CSF1R
T3 construct: purchased DiscoverX (KINOMEscan)
Description: as §1

[4] = target: T4, panel of 203 kinases (Homo sapiens, UniProt P08069); assay: KINOMEscan competitive binding, whole panel; conditions: 10 µM, n=1; kinase IGF1R; read-out: Percent inhibition IGF1R
T4 construct: purchased DiscoverX (KINOMEscan)
Description: as §1

[5] = target: T5, panel of 203 kinases (Homo sapiens, UniProt P08631); assay: KINOMEscan competitive binding, whole panel; conditions: 10 µM, n=1; kinase HCK; read-out: Percent inhibition HCK
T5 construct: purchased DiscoverX (KINOMEscan)
Description: as §1

[6] = target: T6, panel of 203 kinases (Homo sapiens, UniProt P78368); assay: KINOMEscan competitive binding, whole panel; conditions: 10 µM, n=1; kinase CSNK1G2; read-out: Percent inhibition CSNK1G2
T6 construct: purchased DiscoverX (KINOMEscan)
Description: as §1

[7] = target: T7, panel of 203 kinases (Homo sapiens, UniProt Q13131); assay: KINOMEscan competitive binding, whole panel; conditions: 10 µM, n=1; kinase AMPK-alpha1; read-out: Percent inhibition AMPK-alpha1
T7 construct: purchased DiscoverX (KINOMEscan)
Description: as §1

[8] = target: T8, panel of 203 kinases (Homo sapiens, UniProt Q16584); assay: KINOMEscan competitive binding, whole panel; conditions: 10 µM, n=1; kinase MLK3; read-out: Percent inhibition MLK3
T8 construct: purchased DiscoverX (KINOMEscan)
Description: as §1

[9] = target: T9, panel of 203 kinases (Homo sapiens, UniProt Q96GD4); assay: KINOMEscan competitive binding, whole panel; conditions: 10 µM, n=1; kinase AURKB; read-out: Percent inhibition AURKB
T9 construct: purchased DiscoverX (KINOMEscan)
Description: as §1

[10] = target: T10, PLK4 (Homo sapiens, UniProt O00444); assay: KINOMEscan competitive binding; conditions: n=1, read-out: Percent inhibition, PLK4
T10 construct: purchased DiscoverX (KINOMEscan)
T10 sequence (O00444 1-970): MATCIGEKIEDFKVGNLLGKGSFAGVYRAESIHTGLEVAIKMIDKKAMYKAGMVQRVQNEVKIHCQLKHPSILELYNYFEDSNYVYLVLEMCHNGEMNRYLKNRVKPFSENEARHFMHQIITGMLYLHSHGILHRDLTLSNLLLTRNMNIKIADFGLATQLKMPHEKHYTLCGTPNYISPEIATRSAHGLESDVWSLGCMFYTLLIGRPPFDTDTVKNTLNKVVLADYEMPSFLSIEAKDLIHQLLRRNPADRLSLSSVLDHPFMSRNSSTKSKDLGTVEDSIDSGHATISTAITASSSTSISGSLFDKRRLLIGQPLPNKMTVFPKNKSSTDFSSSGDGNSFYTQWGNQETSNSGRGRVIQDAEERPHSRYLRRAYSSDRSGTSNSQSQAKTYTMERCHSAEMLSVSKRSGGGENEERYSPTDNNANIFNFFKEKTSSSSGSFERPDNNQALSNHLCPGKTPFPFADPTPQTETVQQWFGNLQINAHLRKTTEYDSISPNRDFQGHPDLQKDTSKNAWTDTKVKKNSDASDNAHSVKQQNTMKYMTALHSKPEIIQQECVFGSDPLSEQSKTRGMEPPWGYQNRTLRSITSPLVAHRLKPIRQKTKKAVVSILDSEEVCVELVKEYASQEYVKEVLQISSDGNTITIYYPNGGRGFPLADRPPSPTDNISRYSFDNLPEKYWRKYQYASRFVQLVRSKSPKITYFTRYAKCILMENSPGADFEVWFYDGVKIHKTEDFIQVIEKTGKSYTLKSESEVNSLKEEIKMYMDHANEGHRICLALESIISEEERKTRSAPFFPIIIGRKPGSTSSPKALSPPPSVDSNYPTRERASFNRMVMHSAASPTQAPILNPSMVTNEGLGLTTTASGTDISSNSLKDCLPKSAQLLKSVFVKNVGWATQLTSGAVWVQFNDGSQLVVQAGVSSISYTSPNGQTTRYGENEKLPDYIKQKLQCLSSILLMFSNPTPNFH

[11] = target: T11, TRKA (Homo sapiens, UniProt P04629); assay: KINOMEscan competitive binding; conditions: n=1, read-out: Percent inhibition, TRKA
T11 construct: purchased DiscoverX (KINOMEscan)

[12] = target: T12, TXK (Homo sapiens, UniProt P42681); assay: KINOMEscan competitive binding; conditions: n=1, read-out: Percent inhibition, TXK
T12 construct: purchased DiscoverX (KINOMEscan)
T12 sequence (P42681 1-527): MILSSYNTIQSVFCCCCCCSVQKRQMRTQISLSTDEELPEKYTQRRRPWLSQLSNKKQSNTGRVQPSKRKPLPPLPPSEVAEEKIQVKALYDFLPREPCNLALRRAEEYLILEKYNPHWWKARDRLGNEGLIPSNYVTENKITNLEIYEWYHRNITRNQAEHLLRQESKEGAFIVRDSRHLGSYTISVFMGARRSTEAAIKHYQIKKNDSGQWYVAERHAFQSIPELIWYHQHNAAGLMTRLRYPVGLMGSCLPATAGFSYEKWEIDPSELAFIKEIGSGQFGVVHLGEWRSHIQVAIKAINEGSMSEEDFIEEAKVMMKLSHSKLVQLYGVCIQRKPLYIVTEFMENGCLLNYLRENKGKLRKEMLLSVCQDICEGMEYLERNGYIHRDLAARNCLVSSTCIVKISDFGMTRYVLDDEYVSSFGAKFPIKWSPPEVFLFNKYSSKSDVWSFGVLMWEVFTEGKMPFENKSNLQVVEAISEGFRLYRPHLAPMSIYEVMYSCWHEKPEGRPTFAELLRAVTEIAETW

T2 sequence (P07332 whole entry): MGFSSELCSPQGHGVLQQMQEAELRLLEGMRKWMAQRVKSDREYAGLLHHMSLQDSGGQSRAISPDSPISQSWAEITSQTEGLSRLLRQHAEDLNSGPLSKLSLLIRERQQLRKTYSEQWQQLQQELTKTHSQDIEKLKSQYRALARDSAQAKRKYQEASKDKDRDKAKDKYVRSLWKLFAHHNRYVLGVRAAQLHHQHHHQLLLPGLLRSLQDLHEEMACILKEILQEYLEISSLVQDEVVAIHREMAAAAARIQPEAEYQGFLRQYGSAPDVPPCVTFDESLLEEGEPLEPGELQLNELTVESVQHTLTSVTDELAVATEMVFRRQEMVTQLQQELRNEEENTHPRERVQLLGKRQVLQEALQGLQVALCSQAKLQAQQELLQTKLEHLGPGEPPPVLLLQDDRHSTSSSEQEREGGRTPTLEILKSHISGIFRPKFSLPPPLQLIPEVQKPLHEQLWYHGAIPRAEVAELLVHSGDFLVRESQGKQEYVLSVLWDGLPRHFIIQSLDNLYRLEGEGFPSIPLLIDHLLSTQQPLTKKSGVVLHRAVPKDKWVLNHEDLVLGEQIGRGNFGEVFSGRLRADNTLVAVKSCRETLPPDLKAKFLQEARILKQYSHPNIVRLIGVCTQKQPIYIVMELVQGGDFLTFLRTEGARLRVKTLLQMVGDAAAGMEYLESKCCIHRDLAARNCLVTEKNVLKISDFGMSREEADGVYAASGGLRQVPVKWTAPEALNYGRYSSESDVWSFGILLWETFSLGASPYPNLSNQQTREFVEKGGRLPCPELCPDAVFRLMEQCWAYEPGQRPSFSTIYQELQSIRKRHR
T6 sequence (P78368 whole entry): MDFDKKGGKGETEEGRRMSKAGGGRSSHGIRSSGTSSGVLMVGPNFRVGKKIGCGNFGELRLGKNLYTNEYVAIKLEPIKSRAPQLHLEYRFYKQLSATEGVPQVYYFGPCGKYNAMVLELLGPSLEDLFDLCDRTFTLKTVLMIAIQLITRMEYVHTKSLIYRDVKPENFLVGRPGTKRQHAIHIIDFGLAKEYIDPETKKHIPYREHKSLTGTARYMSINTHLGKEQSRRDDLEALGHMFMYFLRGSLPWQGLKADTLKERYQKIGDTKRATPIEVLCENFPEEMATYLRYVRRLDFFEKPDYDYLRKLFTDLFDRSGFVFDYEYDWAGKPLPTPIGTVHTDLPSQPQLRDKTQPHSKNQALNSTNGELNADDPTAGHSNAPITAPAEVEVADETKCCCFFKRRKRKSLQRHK
T4 sequence (P08069 31-1367): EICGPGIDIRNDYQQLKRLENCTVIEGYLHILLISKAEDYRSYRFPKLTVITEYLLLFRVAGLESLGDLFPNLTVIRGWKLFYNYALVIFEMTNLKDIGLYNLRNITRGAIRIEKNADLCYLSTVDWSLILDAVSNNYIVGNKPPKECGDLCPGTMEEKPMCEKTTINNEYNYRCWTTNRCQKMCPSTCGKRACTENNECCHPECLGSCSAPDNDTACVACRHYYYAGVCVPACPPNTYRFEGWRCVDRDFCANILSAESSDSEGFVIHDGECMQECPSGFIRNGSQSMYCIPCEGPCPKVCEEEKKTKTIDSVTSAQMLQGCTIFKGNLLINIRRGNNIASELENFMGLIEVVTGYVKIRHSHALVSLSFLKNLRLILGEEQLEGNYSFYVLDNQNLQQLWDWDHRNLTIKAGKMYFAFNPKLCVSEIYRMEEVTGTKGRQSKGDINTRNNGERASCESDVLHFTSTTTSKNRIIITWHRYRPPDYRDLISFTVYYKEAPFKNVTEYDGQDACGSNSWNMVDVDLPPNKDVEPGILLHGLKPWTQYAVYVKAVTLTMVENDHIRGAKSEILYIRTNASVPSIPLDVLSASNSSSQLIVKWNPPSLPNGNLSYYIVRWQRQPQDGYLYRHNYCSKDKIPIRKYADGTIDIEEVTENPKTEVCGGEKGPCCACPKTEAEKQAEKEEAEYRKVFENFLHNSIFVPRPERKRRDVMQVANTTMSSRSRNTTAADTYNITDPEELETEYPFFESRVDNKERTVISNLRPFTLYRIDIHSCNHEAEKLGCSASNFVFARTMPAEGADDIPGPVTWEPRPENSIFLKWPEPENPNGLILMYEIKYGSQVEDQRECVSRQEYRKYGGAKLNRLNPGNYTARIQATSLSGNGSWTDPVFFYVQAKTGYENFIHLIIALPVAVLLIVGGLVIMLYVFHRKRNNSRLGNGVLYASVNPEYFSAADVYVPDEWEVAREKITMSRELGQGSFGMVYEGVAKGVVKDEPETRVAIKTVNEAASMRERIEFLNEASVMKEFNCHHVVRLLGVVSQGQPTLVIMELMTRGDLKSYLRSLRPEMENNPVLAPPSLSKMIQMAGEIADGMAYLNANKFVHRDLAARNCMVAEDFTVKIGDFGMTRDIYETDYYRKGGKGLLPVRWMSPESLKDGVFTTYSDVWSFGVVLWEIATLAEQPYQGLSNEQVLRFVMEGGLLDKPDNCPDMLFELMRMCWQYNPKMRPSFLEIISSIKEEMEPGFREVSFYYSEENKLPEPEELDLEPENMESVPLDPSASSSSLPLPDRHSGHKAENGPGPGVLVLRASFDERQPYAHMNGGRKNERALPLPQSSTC
T7 sequence (Q13131 whole entry): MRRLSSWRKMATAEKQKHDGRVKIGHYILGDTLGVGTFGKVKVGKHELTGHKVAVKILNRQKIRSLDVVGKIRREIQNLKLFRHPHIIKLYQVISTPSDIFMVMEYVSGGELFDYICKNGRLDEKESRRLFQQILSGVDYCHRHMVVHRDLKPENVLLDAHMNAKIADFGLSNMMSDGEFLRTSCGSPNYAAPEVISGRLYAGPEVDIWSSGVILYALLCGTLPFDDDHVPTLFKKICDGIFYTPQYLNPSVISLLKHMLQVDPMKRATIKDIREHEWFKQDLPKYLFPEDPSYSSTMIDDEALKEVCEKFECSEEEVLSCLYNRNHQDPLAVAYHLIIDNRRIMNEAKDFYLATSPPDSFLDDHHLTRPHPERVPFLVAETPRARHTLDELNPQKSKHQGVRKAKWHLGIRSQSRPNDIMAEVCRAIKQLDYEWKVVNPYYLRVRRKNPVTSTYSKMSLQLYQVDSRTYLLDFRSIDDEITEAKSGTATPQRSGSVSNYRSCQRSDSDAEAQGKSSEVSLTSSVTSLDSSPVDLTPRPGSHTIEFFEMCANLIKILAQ
T3 sequence (P07333 20-972): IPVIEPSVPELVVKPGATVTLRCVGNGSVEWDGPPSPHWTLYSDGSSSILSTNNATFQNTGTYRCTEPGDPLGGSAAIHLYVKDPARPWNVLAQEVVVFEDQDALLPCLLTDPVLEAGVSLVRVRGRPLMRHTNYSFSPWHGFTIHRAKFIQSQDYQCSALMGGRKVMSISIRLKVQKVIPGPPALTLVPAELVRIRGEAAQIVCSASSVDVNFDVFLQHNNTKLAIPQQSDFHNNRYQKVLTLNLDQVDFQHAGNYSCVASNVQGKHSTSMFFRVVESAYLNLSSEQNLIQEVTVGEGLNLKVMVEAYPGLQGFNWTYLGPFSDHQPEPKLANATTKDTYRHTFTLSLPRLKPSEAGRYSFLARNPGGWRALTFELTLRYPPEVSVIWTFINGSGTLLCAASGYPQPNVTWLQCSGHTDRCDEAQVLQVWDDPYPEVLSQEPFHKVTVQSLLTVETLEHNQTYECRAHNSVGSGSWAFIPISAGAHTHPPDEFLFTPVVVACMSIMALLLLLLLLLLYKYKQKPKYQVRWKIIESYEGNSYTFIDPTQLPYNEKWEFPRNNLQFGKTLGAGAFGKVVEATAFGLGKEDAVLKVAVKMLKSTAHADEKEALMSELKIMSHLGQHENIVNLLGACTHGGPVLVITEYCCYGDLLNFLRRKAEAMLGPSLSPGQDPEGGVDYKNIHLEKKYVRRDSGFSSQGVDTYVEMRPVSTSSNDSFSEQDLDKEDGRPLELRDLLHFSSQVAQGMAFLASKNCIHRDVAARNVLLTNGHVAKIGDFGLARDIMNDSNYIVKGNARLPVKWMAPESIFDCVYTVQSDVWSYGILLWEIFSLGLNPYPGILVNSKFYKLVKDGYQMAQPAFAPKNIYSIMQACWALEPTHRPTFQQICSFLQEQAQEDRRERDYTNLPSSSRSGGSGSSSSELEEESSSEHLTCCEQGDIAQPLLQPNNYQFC
T5 sequence (P08631 whole entry): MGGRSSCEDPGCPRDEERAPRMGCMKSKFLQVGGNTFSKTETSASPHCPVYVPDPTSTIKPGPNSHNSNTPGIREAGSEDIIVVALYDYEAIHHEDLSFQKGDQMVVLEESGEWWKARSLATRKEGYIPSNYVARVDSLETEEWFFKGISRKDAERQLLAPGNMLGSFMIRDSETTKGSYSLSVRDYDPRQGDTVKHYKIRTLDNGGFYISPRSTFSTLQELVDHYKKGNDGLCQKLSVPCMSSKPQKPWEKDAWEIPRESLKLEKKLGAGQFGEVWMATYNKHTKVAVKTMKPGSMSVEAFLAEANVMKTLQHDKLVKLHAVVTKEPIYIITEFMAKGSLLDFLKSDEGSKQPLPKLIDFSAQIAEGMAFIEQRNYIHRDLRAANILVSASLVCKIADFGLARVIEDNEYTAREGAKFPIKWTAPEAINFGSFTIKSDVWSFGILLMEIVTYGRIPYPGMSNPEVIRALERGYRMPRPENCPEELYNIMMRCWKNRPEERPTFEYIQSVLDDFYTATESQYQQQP
T9 sequence (Q96GD4 whole entry): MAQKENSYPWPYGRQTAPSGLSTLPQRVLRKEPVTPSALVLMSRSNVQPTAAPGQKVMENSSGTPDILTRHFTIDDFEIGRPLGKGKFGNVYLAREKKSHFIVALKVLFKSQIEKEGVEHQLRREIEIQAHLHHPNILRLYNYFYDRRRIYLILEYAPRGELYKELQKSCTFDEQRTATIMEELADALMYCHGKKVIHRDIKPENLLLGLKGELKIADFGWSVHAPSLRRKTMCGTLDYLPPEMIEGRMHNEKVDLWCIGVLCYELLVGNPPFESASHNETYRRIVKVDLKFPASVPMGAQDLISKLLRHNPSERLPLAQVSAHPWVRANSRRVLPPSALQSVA

| Structure (SMILES) | inhibition at 10 µM [1] | inhibition at 10 µM [2] | inhibition at 10 µM [3] | inhibition at 10 µM [4] | inhibition at 10 µM [5] | inhibition at 10 µM [6] | inhibition at 10 µM [7] | inhibition at 10 µM [8] | inhibition at 10 µM [9] | inhibition at 10 µM [10] | inhibition at 10 µM [11] | inhibition at 10 µM [12] |
| --- | --- | --- | --- | --- | --- | --- | --- | --- | --- | --- | --- | --- |
| CN1CCN(c2ccc(Nc3nccc(-c4cnn5ncccc45)n3)cc2C#N)CC1 [Compound 1] | 82.4% | 66.7% | 99.4% | 99.4% | 0% | 88.3% | 75.7% | 0% | 88.5% | 99.7% | 91.3% | 0% |
| COc1ccc(Nc2nccc(-c3cnn4ncccc34)n2)cc1 [Compound 2] | 88.6% | 84.9% | 99.8% | 98.1% | 0% | 93.6% | 0% | 75.5% | 93.3% | 99% | 0% | 0% |
| Cc1ccc(O)cc1Nc1ccnc(Nc2cccc(C(N)=O)c2)n1 [Compound 3] | 0% | 96.7% | 98.9% | 0% | 99.8% | 93.3% | 0% | 69.4% | 82.8% | 95.2% | 0% | 100% |
| Cc1ccc(O)cc1N(C)c1ccnc(Nc2cccc(S(N)(=O)=O)c2)n1 [Compound 4] | 0% | 100% | 100% | 0% | 99.8% | 75.8% | 0% | 81% | 79.5% | 99.4% | 0% | 100% |
| Fc1cccc(COc2ccc(Nc3ncnc4c3CN(CCN3CCOCC3)CC4)cc2Cl)c1 [Compound 6] | 0% | 0% | 0% | 0% | 0% | 0% | 0% | 0% | 0% | 0% | 0% | 0% |
| COc1cc(Nc2nccc(-c3sc(N)nc3-c3cccc(NC(=O)c4c(F)cccc4F)c3)n2)cc(OC)c1OC [Compound 7] | 0% | 99.8% | 100% | 95.9% | 99.7% | 0% | 98.4% | 99.8% | 100% | 99.8% | 0% | 90.4% |
| C[C@@H](Oc1cc(-c2cnc3ccccn23)sc1C(N)=O)c1ccccc1Cl [Compound 8] | 0% | 0% | 0% | 0% | 0% | 0% | 0% | 0% | 87.3% | 76.4% | 0% | 0% |
| c1ccc(COc2cccc(-c3ccnc4[nH]ccc34)c2)cc1 [Compound 9] | 0% | 0% | 0% | 0% | 0% | 0% | 0% | 0% | 0% | 0% | 0% | 0% |
| Clc1ccc(Nc2ncc(-c3ccccc3)s2)cc1 [Compound 10] | 0% | 0% | 0% | 0% | 0% | 0% | 0% | 0% | 0% | 0% | 0% | 0% |
| Nc1ncc2c(-c3ccncc3)c[nH]c2n1 [Compound 11] | 89.7% | 0% | 0% | 0% | 66.9% | 89.7% | 0% | 82.8% | 65.6% | 84.4% | 0% | 0% |
